Reference: PMC9182211, “Structural Investigation of the Interaction Mechanism between Chlorogenic Acid and AMPA Receptor via In Silico Approaches” (Molecules, 2022)

Molecular target: T1, GluA1 (glutamate ionotropic receptor AMPA type subunit 1) (Homo sapiens, UniProt P42261)
T1 construct: gene GRIA1; Recombinant human GluA1 (AMPA subtype) protein (Abcam ab112297)
Experiment: SPR (Biacore T200, GluA1 immobilized on CM5 chip, steady-state fit)
Type: binding

T1 sequence (P42261 19-906): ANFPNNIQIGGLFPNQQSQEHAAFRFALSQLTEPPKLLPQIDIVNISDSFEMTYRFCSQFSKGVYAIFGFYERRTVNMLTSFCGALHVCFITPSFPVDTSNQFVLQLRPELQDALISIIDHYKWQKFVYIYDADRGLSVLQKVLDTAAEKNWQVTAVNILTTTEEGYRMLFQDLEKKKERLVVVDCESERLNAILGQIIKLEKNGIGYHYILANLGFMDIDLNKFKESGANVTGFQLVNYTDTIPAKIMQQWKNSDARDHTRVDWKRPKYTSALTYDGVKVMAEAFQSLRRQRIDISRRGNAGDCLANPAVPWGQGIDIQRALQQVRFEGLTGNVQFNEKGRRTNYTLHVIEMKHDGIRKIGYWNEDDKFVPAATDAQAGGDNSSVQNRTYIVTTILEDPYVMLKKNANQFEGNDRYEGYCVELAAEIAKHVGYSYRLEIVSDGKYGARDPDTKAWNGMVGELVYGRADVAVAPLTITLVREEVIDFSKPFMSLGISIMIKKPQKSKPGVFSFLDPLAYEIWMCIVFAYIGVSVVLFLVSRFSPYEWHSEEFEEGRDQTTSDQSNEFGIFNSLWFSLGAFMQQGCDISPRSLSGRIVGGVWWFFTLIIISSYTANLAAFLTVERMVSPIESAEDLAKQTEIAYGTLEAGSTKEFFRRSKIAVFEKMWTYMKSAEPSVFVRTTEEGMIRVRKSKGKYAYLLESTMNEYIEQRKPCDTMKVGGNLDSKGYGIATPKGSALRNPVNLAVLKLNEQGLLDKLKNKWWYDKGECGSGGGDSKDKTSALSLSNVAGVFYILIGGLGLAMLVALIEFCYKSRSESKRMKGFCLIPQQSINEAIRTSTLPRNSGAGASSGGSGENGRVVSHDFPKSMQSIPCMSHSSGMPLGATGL

Kd: 496 µM
Structure (SMILES): O=C(/C=C/c1ccc(O)c(O)c1)O[C@@H]1C[C@](O)(C(=O)O)C[C@@H](O)[C@H]1O [CGA, (1S,3R,4R,5R)-3-[(E)-3-(3,4-dihydroxyphenyl)prop-2-enoyl]oxy-1,4,5-trihydroxycyclohexane-1-carboxylic acid]
